# According to patent publication EP1289507B1, “USE OF AN ALDOSTERONE ANTAGONIST FOR THE TREATMENT OR PROPHYLAXIS OF ALDOSTERONE-MEDIATED PATHOGENIC EFFECTS” (priority 2000, dated 2001):
# Legend:
# [1] = system: L-NAME/Angiotensin II/NaCl-treated rats; test: L-NAME/Angiotensin II/NaCl model of cardiac and renal injury (14 days); type: in vivo, Male Wistar rats
# Method: Animals. Male Wistar rats (n=44), weighing 200 to 225 grams, and obtained from Charles River Laboratories (Wilmington, MA) were used in the study. All animals were housed in a room lighted 12 hours per day at an ambient temperature of 22±1°C. Animals were allowed one week to recover after arrival and had free access to Purina Lab Chow 5001 (Ralston Purina Inc, St. Louis, MO) and tap water until the initiation of the experiment. After initiation of the protocols, animals in all groups were placed in individual metabolic cages, handled and weighed daily. Twenty-four hour fluid intake, food intake and urine output were measured daily. […] On day 14 of L-NAME treatment, animals were decapitated, trunk blood was collected into chilled tubes containing ethylene diamine tetraacetic acid and the heart and kidneys were removed, blotted dry and immediately weighed. […] Drugs. Eplerenone was supplied by G.D. Searle Pharmaceuticals (St. […] Dexamethasone was dissolved in sesame oil and administered as a single subcutaneous dose (12 μg/kg/day) every day. This dose of dexamethasone has been reported to maintain normal weight gain, glomerular filtration rate, and fasting plasma glucose and insulin levels in adrenalectomized rats. Stanton, B., Giebisch G et al. J. Clin. Invest 1985 75:1317-1326. The experiment was concluded on day 14 of L-NAME treatment. […] (Hou J et al. J. Clin. Invest. 1995 96:2469-2477. […] This lower dose induced lesions in stroke-prone spontaneously hypertensive rats. (Rocha R et al. […] Dexamethasone, aldosterone and L-NAME were purchased from Sigma Chemical Co. (St. Louis, MO). […] Surgical Procedure. […] Bilateral adrenalectomy was performed using a dorsolumbar approach, making separate incisions on each side. […] No post operative deaths occurred. Assays and Analyses. Systolic blood pressure was measured in awake animals by tail-cuff plethysmography using a Natsume KN-210 manometer and tachometer (Peninsula Laboratories Inc, Belmont, CA). Rats were warmed at 37°C for 10 minutes and allowed to rest quietly in a Lucite chamber before measurement of blood pressure. Urinary protein concentration was determined in urine collected on the last day of the experiment using the sulfosalicylic acid turbidity method. […] Plasma aldosterone concentration was determined using a standard radioimmunoassay-kit from Diagnostic Products Co. (Los Angeles, CA). Plasma renin activity ("PRA") was determined by radioimmunoassay detection of generated angiotensin I (DiaSorin Inc., Stillwater, MN). Histology. Hearts were stained with collagen specific dye Sirius red for determination of fibrosis as reported elsewhere. (Young M et al. Am. J. Physiol 1995 269:[…]-[…]). Interstitial collagen was determined using an automated image analyzer. The hearts were also stained with hematoxylin and eosin for light microscopic analysis. Two or three slices of different sections of the heart containing both right and left ventricle were analyzed from each animal. […] Glomerular damage, when present, was characterized as the presence of either segmental or global sclerosis with ischemic or thrombotic changes. Renal arterial and arteriolar damage was categorized as the presence of fibrinoid necrosis of the vascular wall. The renal arterial and arteriolar profiles presenting damage were counted and the number of injured vessels per section was divided by the number of glomeruli in the same section in order to normalize for the amount of tissue examined. […] Statistical analysis. Data were tested for normality using the Kolmogorov-Smimov test. Systolic blood pressure was analyzed using repeated measures-analysis of variance for time and treatment group. One-way analysis of variance was used for normally distributed data with one grouping variable. Post-hoc analysis was performed using Newman Keuls multiple-comparison test. Data that were not normally distributed were analyzed with the Kruskal-Wallis test. Subsequently, selected pairwise comparisons were made using the exact Wilcoxon test. […]
# [2] = system: patients with hypertension; test: Clinical efficacy in hypertension: randomized double-blind study, cuff and ambulatory blood pressure; type: in vivo
# Method: A multicenter, randomized, double-blind, parallel group study was conducted in patients with hypertension. […] The study consisted of a two-week pretreatment period for completion of screening procedures and discontinuation of any current antihypertensive medication(s). The screening period was followed by a four-week single-blind placebo lead-in treatment period.
# The primary efficacy measure was the change from baseline in cuff diastolic blood pressure measured at trough as compared to placebo. Secondary efficacy measures included changes in cuff assessed trough systolic blood pressure and changes in average 24-hour diastolic and systolic blood pressure assessed by ambulatory blood pressure monitoring. Safety was assessed by conducting routine clinical lab tests, physical exams, ECGs, and monitoring for adverse events.
# [3] = end of experiment, Epl 100 mg/kg/day p.o., ALDO 40 µg/kg/day in adrenalectomized rats
smiles,measurement,setting,value
"COC(=O)[C@@H]1CC2=CC(=O)CC[C@]2(C)[C@@]23O[C@@H]2C[C@@]2(C)[C@@H](CC[C@@]24CCC(=O)O4)[C@H]13 [Eplerenone, Pregn-4-ene-7,21-dicarboxylic acid, 9,11-epoxy-17-hydroxy-3-oxo-, γ-lactone, methyl ester, (7α, 11α, 17β)-]","cardiac injury (myocardial necrosis), histology","[1]; Figures A-3B, A-4",markedly reduced
same,HW/BW,"[1]; cardiac hypertrophy index, Epl 100 mg/kg/day p.o., ALDO 40 µg/kg/day in adrenalectomized rats",3.46 ± .05 mg/g
same,cardiac hypertrophy,[1]; compared to L-NAME/Angiotensin II/NaCl-treated rats,significantly reduced cardiac hypertrophy
same,HW,[1]; [3],1144 ± 4 mg
same,SBP,[1]; [3],177 ± 8 mmHg
same,"urinary protein excretion (24 hour), proteinuria","[1]; end of two-week treatment, Figure A-5",prevented the development of proteinuria
same,extent of hypertension observed at the end of the experiment,"[1]; eplerenone 100 mg/kg/day p.o., Figure A-1",not appreciably influenced
same,reduction in renal arteriopathy damage compared to L-NAME/AngII/NaCl treated rats,"[1]; histopathologic scores, P=0.1 (not significant)",60%
same,"ABPM DBP, adjusted mean change from baseline to final visit",[2]; 50 mg/day (25 BID),-4.1 mm Hg
same,"ABPM SBP, adjusted mean change from baseline to final visit",[2]; 50 mg/day (25 BID),-7.5 mm Hg
same,"Cuff SBP, adjusted mean change from baseline to final visit",[2]; 50 mg/day (25 BID),-8.1 mm Hg
same,"Cuff DBP, adjusted mean change from baseline to final visit","[2]; 50 mg/day (25 BID), eight weeks",-4.4 mm Hg
same,"ABPM DBP, adjusted mean change from baseline to final visit",[2]; 50 mg/day (50 QD),-5.1 mm Hg
same,"ABPM SBP, adjusted mean change from baseline to final visit",[2]; 50 mg/day (50 QD),-6.2 mm Hg
same,"Cuff DBP, adjusted mean change from baseline to final visit",[2]; 50 mg/day (50 QD),-4.5 mm Hg
same,"Cuff SBP, adjusted mean change from baseline to final visit",[2]; 50 mg/day (50 QD),-4.4 mm Hg
same,"ABPM DBP, adjusted mean change from baseline to final visit",[2]; 100 mg/day (50 BID),-6.6 mm Hg
same,"ABPM SBP, adjusted mean change from baseline to final visit",[2]; 100 mg/day (50 BID),-11.6 mm Hg
same,"Cuff DBP, adjusted mean change from baseline to final visit",[2]; 100 mg/day (50 BID),-7.8 mm Hg
same,"Cuff SBP, adjusted mean change from baseline to final visit",[2]; 100 mg/day (50 BID),-11.7 mm Hg
same,"ABPM DBP, adjusted mean change from baseline to final visit",[2]; 100 mg/day (100 QD),-5.6 mm Hg
same,"ABPM SBP, adjusted mean change from baseline to final visit",[2]; 100 mg/day (100 QD),-9.6 mm Hg
same,"Cuff DBP, adjusted mean change from baseline to final visit",[2]; 100 mg/day (100 QD),-4.4 mm Hg
same,"Cuff SBP, adjusted mean change from baseline to final visit",[2]; 100 mg/day (100 QD),-7.9 mm Hg
same,"ABPM DBP, adjusted mean change from baseline to final visit",[2]; 400 mg/day (200 BID),-9.0 mm Hg
same,"ABPM SBP, adjusted mean change from baseline to final visit",[2]; 400 mg/day (200 BID),-16.1 mm Hg
same,"Cuff DBP, adjusted mean change from baseline to final visit",[2]; 400 mg/day (200 BID),-8.9 mm Hg
same,"Cuff SBP, adjusted mean change from baseline to final visit",[2]; 400 mg/day (200 BID),-14.8 mm Hg
same,"ABPM DBP, adjusted mean change from baseline to final visit",[2]; 400 mg/day (400 QD),-7.7 mm Hg
same,"ABPM SBP, adjusted mean change from baseline to final visit",[2]; 400 mg/day (400 QD),-13.7 mm Hg
same,"Cuff DBP, adjusted mean change from baseline to final visit",[2]; 400 mg/day (400 QD),-8.7 mm Hg
same,"Cuff SBP, adjusted mean change from baseline to final visit",[2]; 400 mg/day (400 QD),-15.0 mm Hg
same,Peak to trough ratios,"[2]; QD and BID regimens, all doses",1.04 - 1.10
same,gynecomastia,[2]; eight-week double-blind treatment,no reports of gynecomastia
same,tolerability,[2]; incidence of adverse events similar to placebo,well tolerated
